Laboratory results published in US11730717B1, “Melanin-inspired antimicrobial” (The Board of Regents for the Oklahoma Agricultural and …, priority 2020, dated 2023).
Like-named read-outs stand apart in the source and are kept apart here.

Legend:
S. aureus SFL64 = test: MIC and MBC values (Table 2); format: cell-based, Staphylococcus aureus; settings: repeated determinations
MRSA = test: Live/Dead staining and fluorescent microscopy; format: cell-based, Staphylococcus aureus
Protocol: MRSA was grown overnight in 10 mL of LB broth, sub-cultured (5 mL of overnight culture added to 20 mL LB) and grown for 3 h. Bacterial culture (150 μL) were removed and transferred to a 1.5 mL centrifuge tube, which was treated with DMSO, EIPE-1 (0.01 mg/mL) or DBI (0.01 mg/mL) for 30 minutes. Equal amounts of the two dyes (SYTO 9 dye, 3.34 mM in DMSO), and propidium iodide (20 mM in DMSO) were mixed. Then 0.5 μL of the dye mixture was added to each tube of treated MRSA cultures. Wet mounts were prepared on glass slides for imaging live and dead MRSA, and Differential Interference Contrast (DIC) images were obtained using a Leica DMI600B fluorescent microscope. To determine the percentage of bacteria alive and dead, the total bacteria in each condition were counted in 20 fields of view and graphed using Prism 5.0.
To address MRSA viability in response to EIPE-1 treatment, a Live/Dead staining and microscopy was utilized. MRSA was treated with either DBI or EIPE-1 (16 μg/mL, 17 μM each) for 30 minutes (DMSO was used as a negative solvent control) and then stained with the dyes, Syto™ 9 and propidium iodide.

[1] = system: Staphylococcus aureus ATCC 25923; test: Disc agar diffusion assay; format: cell-based
Protocol: (§1) As a further test of an embodiment, the antibacterial properties of EIPE-1 were tested across a large panel of organisms. EIPE-1 was dissolved in DMSO, impregnated onto sterile filter paper disks, and DMSO served as the untreated control according to the following procedure: • 1. Prepare a 2.5 μg/μL stock solution of EIPE-1 by micro pipetting 200 μL of DMSO into 2.0 mL Eppendorf Tube containing 0.5 mg of EIPE-1. Dissolve with vortex agitation and store at 4° C. • 2. Use forceps to pick up sterile 6.0 mm blank paper disks. Make sure to touch only one side of disc as lightly as possible. […] Lean the impregnated disc up against the side of a small sterile glass petri dish. Follow same procedure for DMSO control. Allow disks several hours to dry under flowing sterile air. • 3. Inoculate starter cultures using cells from working culture cultivated on Mueller-Hinton Agar (MHA; Difco Laboratories). Starters consist of ˜20 mL of Mueller-Hinton Broth (MHB; Difco Laboratories) in 125-mL culture flasks. Incubate starter cultures in an Excella E24 Benchtop Incubator Shaker (New Brunswick Scientific Co., Inc., Edison, N.J., USA) at 37° C. and 180 rpm for 15-18 hours. • 4. Pour at least 5.0 mL of NMB into 18-mL Kimax tubes. Use a Pasteur pipette to deliver enough of the starter culture cell suspension to reach an optical density (OD620) of 0.025 (Spectronic™ 20 optical spectrophotometer; Thermo Electron Corp., Madison, Wis., USA). Ensure that both transmittance and absorbance are set to 0.0 using a blank NMB sample. Incubate in rotary shaking incubator at 37° C. and 180 rpm until optical density reaches 0.1. • 5. Deliver 100 μL of test culture to the middle of a small 100 mm×15 mm Petri dish containing ˜⅛ in thickness of MHA. • 6. Saturate a sterile cotton swab with MHB by dipping the cotton swab into KIMAX® tube with MHB and then touch the swab to the north, south, east, and west side of the KIMAX® tube to remove excess broth. • 7. Streak the inoculum as follows: • a. Start in the center and make four straight lines to the 12, 3, 6, and 9 o'clock position on the petri dish. • b. Start at the 12 o'clock position and streak side to side all the way down the plate to the 6 o'clock position. […] Rotate the petri dish 90° and complete the same side to side streak all the way down the petri dish. • d. Complete step c. twice more. • e. Rotate petri dish 45° and complete the side-to-side streak. • f. Rotate petri dish 90° and complete the side-to-side streak. • 8. Use sterile forceps to transfer the DMSO control paper disc onto the agar surface and pat the paper disc down to ensure flush contact. Use the same technique to deliver EIPE-1 paper disc. • 9. Place petri dish at 4° C. for 1.0 hour to allow EIPE-1 diffusion in the absence of growth. • 10. Incubate petri dish at 37° C. for 18 hours. • 11. Observe for zones of growth inhibition surrounding disks. Measure diameter with electronic caliper and subtract 6.0-mm disc diameter. Results • a) Each organism was initially tested once to serve as a screen.

[2] = system: Bacillus subtilis ATCC 6633; test: Disc agar diffusion assay; format: cell-based
Protocol: as §1

[3] = Group 3: Gram-positive organisms

Compound: COC(=O)c1cc2c(C#Cc3ccc(OCCC[N+](C)(C)C)cc3)c(OC)c(OC)c(C#Cc3ccc(OCCC[N+](C)(C)C)cc3)c2n1C [EIPE-1, 3,3′-((((5,6-dimethoxy-2-(methoxycarbonyl)-1-methyl-1H-indole-4,7-diyl)bis(ethyne-2,1-diyl))bis(4,1-phenylene))bis(oxy))bis(N,N,N-trimethylpropan-1-aminium) iodide]
- MIC (S. aureus SFL64; S. aureus SFL64): 1.000 µg/mL
- MIC (S. aureus SFL64; Staphylococcus aureus, SFL64, S. aureus SFL64, read-out: MIC): 0.5 µg/mL
- Live/Dead staining (green = intact membrane, red = damaged membrane) (MRSA; 16 μg/mL, 17 μM, 30 minutes, Syto 9 and propidium iodide): only stained red
- time of exposure until biocidal activity occurred (MRSA; MRSA): ≤ 30 min
- susceptibility group in disc diffusion screen [1, 3]: susceptible
- Inhibition Zone Diameter (mm) ± SD ([1]; S. aureus ATCC 25923, 25 μg per disk, zone minus disk diameter (6.0mm)): 1.6 ± 0.1 mm
- Inhibition Zone Diameter (mm) ± SD ([1]; S. aureus ATCC 25923, 50 μg per disk, zone minus disk diameter (6.0mm)): 3.1 ± 0.2 mm
- zone of inhibition at 25 µg/disc ([1]; Staphylococcus aureus, ATCC25923, S. aureus ATCC 25923, 25 μg per disk, zone minus disk diameter (6.0mm), read-out: Inhibition Zone Diameter (mm) ± SD): 1.6 mm
- zone of inhibition at 50 µg/disc ([1]; Staphylococcus aureus, ATCC25923, S. aureus ATCC 25923, 50 μg per disk, zone minus disk diameter (6.0mm), read-out: Inhibition Zone Diameter (mm) ± SD): 3.1 mm
- zone of inhibition at 250 µg/disc ([1]; Staphylococcus aureus, ATCC25923, S. aureus ATCC 25923, 250 μg per disk, zone minus disk diameter (6.0mm), read-out: Inhibition Zone Diameter (mm) ± SD): 2.3 ± 0.2 mm
- Inhibition Zone Diameter (mm) ± SD ([2]; B. subtilis ATCC 6633, 25 μg per disk, zone minus disk diameter (6.0mm)): 1.1 ± 0.2 mm
- Inhibition Zone Diameter (mm) ± SD ([2]; B. subtilis ATCC 6633, 50 μg per disk, zone minus disk diameter (6.0mm)): 3.3 ± 0.1 mm
- zone of inhibition at 25 µg/disc ([2]; Bacillus subtilis, ATCC6633, B. subtilis ATCC 6633, 25 μg per disk, zone minus disk diameter (6.0mm), read-out: Inhibition Zone Diameter (mm) ± SD): 1.1 mm
- zone of inhibition at 50 µg/disc ([2]; Bacillus subtilis, ATCC6633, B. subtilis ATCC 6633, 50 μg per disk, zone minus disk diameter (6.0mm), read-out: Inhibition Zone Diameter (mm) ± SD): 3.3 mm
- zone of inhibition at 250 µg/disc ([2]; Bacillus subtilis, ATCC6633, B. subtilis ATCC 6633, 250 μg per disk, zone minus disk diameter (6.0mm), read-out: Inhibition Zone Diameter (mm) ± SD): 1.8 ± 0.3 mm
- susceptibility group in disc diffusion screen [2, 3]: susceptible
